Several values for one entry are separate records, joined by “and”; a condition that tells them apart may be missing. Equal entries are not always repeated.
Assays:
Pseudomonas in wounds = experiment: Pig infected wound model, delivery methods (Example 4); format: in vivo; settings: Day 2, 400 ppm chlorine dioxide over two hours, versus moist controls
Text: (§1) The test animal was a pig (n=1). Pigs are commonly used as models for wound healing in part because pig skin shares many characteristics with human skin. The porcine model is considered to be an excellent tool for the evaluation of candidate agents intended for use in human wounds.
(§2) On Day 0, the pig was anesthetized and sixteen […] full-thickness wounds (eight per side) were created using a custom designed 2-cm trephine. Each wound was 2-cm in diameter. An epinephrine solution (1:10,000 dilution) was applied to the wounds on gauze sponges until hemostasis was complete (approximately 10 minutes). Each wound was then infected with a bacterial inoculum.
(§3) Three different bacteria, Pseudomonas aeruginosa, Fusobacterium sp., and coagulase-negative Staphylococci (CNS), were cultured and used to prepare inoculums for the wounds. On the morning of surgery, the bacterial cultures were washed with sterile saline and resuspended in saline to a final density of approximately 10^7 CFU/mL. This bacterial suspension was used to inoculate each wound.
(§4) Wounds were dressed with sterile Telfa gauze, and the infections allowed to mature to establish a bacterial biofilm condition. Telfa dressings were moistened with saline: the excess saline was removed by squeezing the Telfa dressings. The dressing was then secured in place with Transpore tape (3M, St. Paul, Minn.), As a secondary dressing, a blue absorbent pad was used to cover all of the wounds. The absorbent layer of the blue pad was placed against the skin for the first few days. If wounds looked too dry, the blue pad was changed with the occlusive side against the skin. A layer of a layer of elastic bandage was wrapped over the blue pad to prevent movement of the dressings underneath. All wound dressing were changed on Day 1.
(§5) On Day 2, wounds were treated with a chlorine dioxide composition using different delivery methods. In brief, wounds A2-A4 were treated with continuous irrigation. Treatment for wounds B2-B4 and C2-C4 was multiple, substantially contiguous episodes of contact with a substantially non-cytotoxic chlorine dioxide gel composition. Wounds D2-D4 were treated with intermittent irrigation using a manual irrigation device. A1, B1 and D1 were controls and were not treated with chlorine dioxide. C1 was manually treated with a chlorine dioxide solution.
(§6) Wounds A2-A4: Each wound was individually covered with an irrigation device, each having an inlet, port to supply a chlorine dioxide solution and an outlet port for egress of the chlorine, dioxide solution. […]
(§7) The pump was activated to achieve an initial flow rate of approximately 80-82 ml mm through each of the three irrigation chambers. Chlorine dioxide concentrations were measured at the outlets using a UV spectrophotometer. […]

total bacteria in wounds = experiment: as above; format: in vivo; settings: Day 2, 400 ppm chlorine dioxide over two hours, versus moist controls
Text: as §1, §2, §3, §4, §5, §6, §7

[1] = Tooth whitening with multiple contiguous applications, Vita Classic Shade Guide (Example 7); parameters: species or system human; settings: for ΔSVU, Average: average of five teeth; for ΔSVU: nominal 200 ppm (actual 155 ppm) NaCMC gel, pH 5.0, individual teeth A-E, baseline C4
Text: This study was designed to assess the efficacy on tooth whitening of two different regimens of multiple, contiguous applications of a 200 ppm chlorine dioxide gel. Five human extracted teeth (molars) were used in this study. Each tooth was sectioned twice: first at the tooth's cemento-enamel junction to remove the root portion of the tooth; then sectioned mesio-distally to separate the tooth into two, separate buccal and lingual halves. […] The sectioned teeth were then stained in concentrated black tea (cooled to room temperature after brewing) until each tooth accumulated enough stain to be visually graded as “C4” (hut no lighter than “A4”) per the Vita Classic Shade Vision Guide.
After staining, the cut sides of each tooth were sealed with an acrylic polymer (i.e. acrylic-based nail polish). The tooth was then “split” or functionally “divided” into a left and right sides (the tooth was not physically split). To create “dividing line,” a narrow channel was first created down the center of the tooth (running from the occlusal to the gingival or cervical portion of the tooth) using a narrow tungsten carbide or diamond tip dental bur, thereby creating an approximately 0.5 to 1.5-mm deep by 1 to 1.5-mm wide channel on either the buccal or lingual enamel surface of the tooth segment. The channel was etched carefully with a 34-40% phosphoric acid dental etching gel preparation (being careful to confine the gel only to the enamel within the prepared channel). The etching gel was then removed by water rinsing, the Stir face was dried, and a thin, narrow band of enamel-dentin adhesive was then applied carefully only to the enamel within the narrow channel. The material was allowed to dry in ambient air for 1 minute then carefully dried with a gentle stream of compressed air for an additional 10 seconds. The enamel-dentin adhesive was subsequently cured by exposure to a visible light dental curing unit using actinic blue light at an approximate peak wavelength of 470 nm for multiple, 20 second curing increments. In order to fill in the channel and gradually build a “wall” or harrier to separate the left and right half of the lingual surface of the tooth, a thin, narrow layer or band of composite resin dental restorative material was added in several steps and cured with the dental visible blue-light curing unit.
The wall that was built up on each tooth prevents whitening agent applied on the left side of the tooth to migrate into the whitening agent that was applied on the right side of the tooth, and visa versa. In this way, it is possible to compare two different treatment regimens on the same tooth, thereby minimizing the biological diversity among different teeth that may affect whitening efficacy.
Two treatment regimens were tested, both using a nominal 200 ppm chlorine dioxide gel comprising sodium carboxymethylcellulose (NaCMC). The actual concentration of chlorine dioxide was measured and found to be 155 ppm; pH of the composition was 5.0. The general treatment protocol is as follows. […] The 60 ml syringe was used to store the gel during the assay, and for dispensing gel into a 10 ml plastic syringe. The gel in the 10 ml syringe was then dispensed directly onto the tooth section enamel surfaces as follows. At time zero, about 1 to 1.5 ml gel was dispensed onto the enamel surface of each tooth segment attached to the glass microscope slide. The thickness of the resulting gel layer was about 1.5 to 3.0 mm in depth. After dispensing the gel onto the tooth segments, the glass slide was placed in a plastic zippered bag, containing small strips of wet paper towel within the bag to maintain 100% humidity in the bag. The paper towel strips were positioned to eliminate any contact of the plastic bag with the tooth and gel surfaces.
Upon conclusion of a contact epidose, the glass slide was removed from the plastic bag, and the gel was carefully removed with an extra soft bristle toothbrush and a gentle stream of running tap water. […]

[2] = 30 minutes total exposure, Left: 2 × 15 minutes
[3] = 30 minutes total exposure, Right: 4 × 7.5 minutes
[4] = 60 minutes total exposure, Left: 4 × 15 minutes
[5] = 60 minutes total exposure, Right: 8 × 7.5 minutes

## [O][Cl+][O-] [ClO2, chlorine dioxide]
Pseudomonas in wounds
  reduction of Pseudomonas: ≥ 3 logs
Total bacteria in wounds
  total bacteria reduction: 1-2 logs
[1]; [2]
  ΔSVU, Average: 11.4 SVU
  ΔSVU: 12 SVU (3×) and 10 SVU and 11 SVU
[1]; [3]
  ΔSVU, Average: 12.6 SVU
  ΔSVU: 15 SVU and 12 SVU (4×)
[1]; [4]
  ΔSVU, Average: 11.8 SVU
  ΔSVU: 12 SVU (4×) and 11 SVU
[1]; [5]
  ΔSVU, Average: 13.6 SVU
  ΔSVU: 15 SVU (2×) and 14 SVU and 12 SVU (2×)
[1]; nominal dosage 6000 ppm-min (30 minutes × 200 ppm)
  improvement of tooth whitening, four applications compared to two applications: about 10%
[1]; nominal dosage 12,000 ppm-min
  improvement of tooth whitening, eight applications over four applications: about 15%

— US8703106B2, “Chlorine dioxide treatment for biological tissue” (priority 2009, dated 2014)
